Where “and” joins values, the source holds several entries; their conditions need not be identical. Equal values may be shown once.
Conditions: for mass density / viscosity / speed of sound / vapor or sublimation pressure: Liquid; for mass density: Vibrating tube method; for surface tension liquid-gas: Drop volume; for viscosity: Capillary tube (Ostwald / Ubbelohde) method; for speed of sound: Frequency=3 MHz, Single path-length method; for vapor or sublimation pressure: Ebulliometric method (Recirculating still)

O=Cc1cccs1 [2-thiophenealdehyde]
Conditions | mass density | speed of sound [m/s] | viscosity [mPa·s]
313.15 K, 65000 kPa | 1238.47 kg/m3 | – | –
315.65 K, 100 kPa | 1199.69 kg/m3 | 1404.1 | 1.528
318.15 K, 100 kPa | 1197.17 kg/m3 and 1197.16 kg/m3 | 1395.9 | 1.473
318.15 K, 2000 kPa | 1198.45 kg/m3 | – | –
318.15 K, 5000 kPa | 1200.45 kg/m3 | – | –
318.15 K, 7000 kPa | 1201.76 kg/m3 | – | –
318.15 K, 10000 kPa | 1203.7 kg/m3 | – | –
318.15 K, 15000 kPa | 1206.86 kg/m3 | – | –
318.15 K, 20000 kPa | 1209.92 kg/m3 | – | –
318.15 K, 25000 kPa | 1212.9 kg/m3 | – | –
318.15 K, 30000 kPa | 1215.8 kg/m3 | – | –
318.15 K, 35000 kPa | 1218.62 kg/m3 | – | –
318.15 K, 40000 kPa | 1221.37 kg/m3 | – | –
318.15 K, 45000 kPa | 1224.05 kg/m3 | – | –
318.15 K, 50000 kPa | 1226.67 kg/m3 | – | –
318.15 K, 55000 kPa | 1229.23 kg/m3 | – | –
318.15 K, 60000 kPa | 1231.73 kg/m3 | – | –
318.15 K, 65000 kPa | 1234.18 kg/m3 | – | –
320.65 K, 100 kPa | 1194.65 kg/m3 | 1387.6 | 1.418
323.15 K, 100 kPa | 1192.12 kg/m3 | 1379.3 | 1.375
323.15 K, 2000 kPa | 1193.44 kg/m3 | – | –
323.15 K, 5000 kPa | 1195.49 kg/m3 | – | –
323.15 K, 7000 kPa | 1196.83 kg/m3 | – | –
323.15 K, 10000 kPa | 1198.82 kg/m3 | – | –
323.15 K, 15000 kPa | 1202.04 kg/m3 | – | –
323.15 K, 20000 kPa | 1205.17 kg/m3 | – | –
323.15 K, 25000 kPa | 1208.22 kg/m3 | – | –
323.15 K, 30000 kPa | 1211.17 kg/m3 | – | –
323.15 K, 35000 kPa | 1214.05 kg/m3 | – | –
323.15 K, 40000 kPa | 1216.86 kg/m3 | – | –
323.15 K, 45000 kPa | 1219.59 kg/m3 | – | –
323.15 K, 50000 kPa | 1222.26 kg/m3 | – | –
323.15 K, 55000 kPa | 1224.86 kg/m3 | – | –
323.15 K, 60000 kPa | 1227.41 kg/m3 | – | –
323.15 K, 65000 kPa | 1229.89 kg/m3 | – | –
325.65 K, 100 kPa | 1189.6 kg/m3 | 1371.1 | 1.325
328.15 K, 100 kPa | 1187.08 kg/m3 and 1187.07 kg/m3 | 1362.8 | 1.275
328.15 K, 2000 kPa | 1188.42 kg/m3 | – | –
328.15 K, 5000 kPa | 1190.52 kg/m3 | – | –
328.15 K, 7000 kPa | 1191.9 kg/m3 | – | –
328.15 K, 10000 kPa | 1193.93 kg/m3 | – | –
328.15 K, 15000 kPa | 1197.23 kg/m3 | – | –
328.15 K, 20000 kPa | 1200.43 kg/m3 | – | –
328.15 K, 25000 kPa | 1203.54 kg/m3 | – | –
328.15 K, 30000 kPa | 1206.56 kg/m3 | – | –
328.15 K, 35000 kPa | 1209.49 kg/m3 | – | –
328.15 K, 40000 kPa | 1212.35 kg/m3 | – | –
328.15 K, 45000 kPa | 1215.13 kg/m3 | – | –
328.15 K, 50000 kPa | 1217.85 kg/m3 | – | –
328.15 K, 55000 kPa | 1220.5 kg/m3 | – | –
328.15 K, 60000 kPa | 1223.09 kg/m3 | – | –
328.15 K, 65000 kPa | 1225.62 kg/m3 | – | –
330.65 K, 100 kPa | 1184.55 kg/m3 | 1354.6 | 1.233
333.15 K, 100 kPa | 1182.02 kg/m3 | 1346.4 | 1.194
333.15 K, 2000 kPa | 1183.41 kg/m3 | – | –
333.15 K, 5000 kPa | 1185.56 kg/m3 | – | –
333.15 K, 7000 kPa | 1186.96 kg/m3 | – | –
333.15 K, 10000 kPa | 1189.04 kg/m3 | – | –
333.15 K, 15000 kPa | 1192.42 kg/m3 | – | –
333.15 K, 20000 kPa | 1195.69 kg/m3 | – | –
333.15 K, 25000 kPa | 1198.86 kg/m3 | – | –
333.15 K, 30000 kPa | 1201.94 kg/m3 | – | –
333.15 K, 35000 kPa | 1204.93 kg/m3 | – | –
333.15 K, 40000 kPa | 1207.85 kg/m3 | – | –
333.15 K, 45000 kPa | 1210.68 kg/m3 | – | –
333.15 K, 50000 kPa | 1213.45 kg/m3 | – | –
333.15 K, 55000 kPa | 1216.14 kg/m3 | – | –
333.15 K, 60000 kPa | 1218.77 kg/m3 | – | –
333.15 K, 65000 kPa | 1221.34 kg/m3 | – | –
335.65 K, 100 kPa | 1179.49 kg/m3 | 1338.2 | 1.155
338.15 K, 100 kPa | 1176.97 kg/m3 | 1330.2 | 1.121
338.15 K, 2000 kPa | 1178.39 kg/m3 | – | –
338.15 K, 5000 kPa | 1180.59 kg/m3 | – | –
338.15 K, 7000 kPa | 1182.03 kg/m3 | – | –
338.15 K, 10000 kPa | 1184.16 kg/m3 | – | –
338.15 K, 15000 kPa | 1187.61 kg/m3 | – | –
338.15 K, 20000 kPa | 1190.94 kg/m3 | – | –
338.15 K, 25000 kPa | 1194.18 kg/m3 | – | –
338.15 K, 30000 kPa | 1197.32 kg/m3 | – | –
338.15 K, 35000 kPa | 1200.37 kg/m3 | – | –
338.15 K, 40000 kPa | 1203.34 kg/m3 | – | –
338.15 K, 45000 kPa | 1206.23 kg/m3 | – | –
338.15 K, 50000 kPa | 1209.04 kg/m3 | – | –
338.15 K, 55000 kPa | 1211.78 kg/m3 | – | –
338.15 K, 60000 kPa | 1214.46 kg/m3 | – | –
338.15 K, 65000 kPa | 1217.07 kg/m3 | – | –

Conditions | surface tension liquid-gas [mN/m] | vapor or sublimation pressure [kPa]
315.65 K | 43.89 | –
318.15 K | 43.6 | –
320.65 K | 43.28 | –
323.15 K | 43.01 | –
325.65 K | 42.68 | –
328.15 K | 42.39 | –
330.65 K | 42.09 | –
333.15 K | 41.76 | –
335.65 K | 41.46 | –
336.42 K | – | 0.66
338.15 K | 41.21 | –
340.7 K | – | 0.85
345.63 K | – | 1.135
349.65 K | – | 1.4
353.7 K | – | 1.725
356.19 K | – | 1.915
359.55 K | – | 2.265
361.67 K | – | 2.55
364.68 K | – | 2.925
366.94 K | – | 3.265
368.98 K | – | 3.6
372.07 K | – | 4.14
374.68 K | – | 4.645
376.79 K | – | 5.065
377.74 K | – | 5.3
379.92 K | – | 5.8
382.69 K | – | 6.5
386.72 K | – | 7.585
389.41 K | – | 8.415
391.94 K | – | 9.285
394.82 K | – | 10.41
399.42 K | – | 12.29
401.02 K | – | 13.11
403 K | – | 14.06
404.9 K | – | 15.05
407.06 K | – | 16.14
408.95 K | – | 17.25
411.16 K | – | 18.6
412.82 K | – | 19.66
413.9 K | – | 20.41
415.91 K | – | 21.8
418.01 K | – | 23.36
420.05 K | – | 24.95
422.07 K | – | 26.6
424.04 K | – | 28.25
426.15 K | – | 30.11
428.14 K | – | 32.01
429.02 K | – | 32.92
430.17 K | – | 34.05
431.54 K | – | 35.47
433.17 K | – | 37.2
